Data reported in patent publication US9983211B2 (priority 2007, dated 2018).

Settings: in vivo

For `N#CC(O)c1ccccc1` (stereo not shown) [mandelonitrile], the “times less toxic than sodium cyanide” value was “approximately 18 times”.
